These are literature values, as cited in US20160120180A1, “COMPOSITIONS AND METHODS FOR CONTROLLING REPLANT DISEASES OF PERENNIAL CROPS” (Adjuvants Unlimited LLC, priority 2014, published 2016).

For series [1], the system named is Meloidogyne incognita. The conditions noted are these: in vitro.
Series [2] concerns Meloidogyne incognita. To be noted: sprayed on plant foliage as a dilute emulsion.
The next series relates to test plants. To be noted: emulsion applied to soil at 2 and 4 grams of fatty acid per square foot.
For the next series, the system named is nematodes. The conditions noted are these: soil-applied treatment on bermudagrass.

Structures are written as SMILES.

In the case of `C=CCCCCCCCCC(=O)O` [undecylenic acid], in the series with Meloidogyne incognita [1], the “Effect on isolated egg masses” value is “destroyed isolated egg masses”. In addition, the “Systemic effects on nematodes” value in the series with Meloidogyne incognita [2] was “no systemic effects”. Moreover, in the series on test plants, the “Effect on test plants (phytotoxicity)” value is given as “the test plants died”. Also, the Nematode number result with nematodes is “reduction in nematode number”.
